According to US6379959B1, “Metalocarboxypeptidase inhibitors and derived molecules used as antitumor agents” (Universitat Autonoma de Barcelona, priority 1996, dated 2002):
Positions of bridges follow the written chain, without caps; N, C: chain ends. No end group written: not given here.

Key:
[1] = system: human pancreatic adenocarcinoma cell line Capan-1; experiment: Growth curve of the cell line Capan-1 in presence or absence of PCI; assay type: cell-based; settings: for Duplication time: DMEM + 10% FBS (control 85)
Experimental: The growth curve of the human pancreatic adenocarcinoma cell line Capan-1 was determined by culturing the cells in medium DMEM supplemented with 10% of FBS (see Section 4 ..B.1.). Plates with wells were used, each with a surface of 10 cm^2 (Nunc, Denmark). The number of cells initially placed per well was 1×10^5, and changes of medium were made every four days, adding new PCI in the medium in the case of the cells treated with PCI.
Three growth curves were determined (FIG. 10) in absence of PCI and in presence of PCI, in concentrations of 1 μg/mL and of 10 μg/mL. Initially, 45 replica-wells were placed for each treatment. After 15 days, three of the replica-wells of each treatment were taken and their number of cells counted by means of trypsinization and recount employing hemocytometer (for a description of the technique, see Section 4.B.1.). The results of the tests are shown in Table 13, which presents the duplication times calculated from the data.

Capan-1 cell line = experiment: Proliferation of Capan-1 cells pretreated with PCI; assay type: cell-based, human; settings: pretreatment 50 μg/mL of PCI, 28-34 days; treatment 5-18 days
Experimental: In the case of the Capan-1 cell line, two different tests and which are described as follows were carried out:
1. 5,000 cells were seed in 2 wells of a plate of 12 wells. One of the wells was grown with medium (non-pretreated cells), and the other with medium with 50 μg/mL of PCI (pretreated cells). The cells were kept in such conditions for the period of time that is indicated in the results section as time of pretreatment.
2. Twice a week, the medium of the wells was replaced by fresh medium with or without PCI, and each time that in any of the wells confluence was reached, the cells were trypsinized and 1/10 of them was placed again in the original well, the other cells being discarded or frozen.
3. Once the desired time of pretreatment elapsed, the cells were trypsinized and counted, being employed to start proliferation tests such as those described in Section 4.B.2.1. The number of cells that was placed per well in the proliferation plate (of 96 wells) was 2,000, 7 replicas being put for each treatment. The cells underwent treatment with or without various PCI concentrations.
4. Once the treatment time elapsed, the number of cells per well was estimated as previously described in Section 4.B.2.a.

[2] = system: tumors of human pancreatic adenocarcinoma cell line Capan-1; experiment: Tests with athymic mice, subcutaneous Capan-1 tumors; assay type: in vivo, nude mice; set-up: key to SGD class: SGD < 1 expressed as −; >expressed +; <3 expressed as +++; settings: for Duplication time (days) of the tumor: daily 100 μL into the tumor, 32 days (control 4.32)
Experimental: With the aim of evaluating the sensitivity to PCI of induced human tumors, studies were carried out with nude mice. Human pancreatic adenocarcinoma cells Capan-1 were inoculated in these mice subcutaneously and once the tumor reached a minimum size of 3×3 mm2, a daily treatment begun, also subcutaneous, with different doses of PCI for 32 days. The following materials were employed:
In order to determine whether the PCI had any effect on tumoral growth, the growth of subcutaneous tumors induced in nude mice, whether treated with PCI or not, was followed over a period of time. The detailed protocol was the following:
1. 10^7 Capan-1 cells were dissolved in 100 μL of DMEM and injected subcutaneously to the mice. 19 mice were inoculated and divided into 4 groups.
Control group: consisting of 5 mice. They were treated with PBS.
Group 1: also consisting of 5 mice. They were treated with 0.11 mg/mL of PCI dissolved in PBS.
Group 2: consisting of 5 mice to which a treatment with a dose of 0.6 mg/mL of PCI was applied.
Group 3: consisting of 4 mice for which, in this case, the dose of PCI was 1.2 mg/mL of PCI.
2. 12 days after the inoculation of the cells, the daily treatment with PBS or PCI by direct injection in the tumor of 100 μL of such solutions was started. At this moment, the tumors were palpable and measured, at least, 2 mm of diameter.
3. During the treatment, the size of the tumor was determined every two days using a Vernier calibrator which made it possible to measure the size of the tumor in all its dimensions. The volume of the tumor was determined by means of the following formula: [formula]
As the volumes of the tumors became known, the relative growth of such tumors was calculated every 7 days using the following formula: [formula]
Once the treatment had finished, the duplication time of the tumor (td) was calculated for each treatment with the following formula: [formula]
where d corresponds to the days of treatment, Vt to the volume of the tumor at the end of the treatment and V0 to the volume at the beginning of the treatment.

[3] = Dose 0.55 (mg(kg/day), s.c., days 0-32)
[4] = Dose 3 (mg(kg/day), s.c., days 0-32)
[5] = Dose 6 (mg(kg/day), s.c., days 0-32)

Substance: PCI: potato carboxypeptidase inhibitor, isoform IIa, obtained by recombinant DNA techniques in E. coli (SEQ ID NO.2) (EQHADPICNKPCKTHDDCSGAWFCQACWNSARTCGPYVG; disulfide 12-27, 18-34, 8-24)
- density reached by the stationary stage compared with the control cells ([1]; 10 μg/mL of PCI): a half
- Duplication time ([1]; Treated with 1 mg/mL): 90 h
- Duplication time ([1]; Treated with 10 mg/mL): 130 h
- final number of cells, pretreated cells cultivated afterwards in absence of PCI vs non-pretreated cells (Capan-1 cell line): approximately half
- Duplication time (days) of the tumor ([2]; 0.11 mg/mL PCI): 9.06 days
- Duplication time (days) of the tumor ([2]; 0.6 mg/mL PCI): 19.49 days
- Duplication time (days) of the tumor ([2]; 1.2 mg/mL PCI): 5.78 days
- Optimal T/C % [2, 3]: 39.79%
- SGD (Td treated- Td control/Td control) [2, 3]: 1.09
- SGD class [2, 3]: +
- Optimal T/C % [2, 4]: 21.36%
- SGD (Td treated- Td control/Td control) [2, 4]: 3.51
- SGD class [2, 4]: +++ (<3 expressed as +++)
- Optimal T/C % [2, 5]: 69.4%
- SGD (Td treated- Td control/Td control) [2, 5]: 0.34
- SGD class [2, 5]: − (SGD < 1 expressed as −)
- days of treatment until tumors start bleeding in the process of injection ([2]; animals treated with PCI (control three days)): 8 days
- activity in the reduction of the growth of the tumors ([2]; dose of 0.11 mg/mL): moderate activity (T/C < 50% moderate activity)
- duplication time of the tumor relative to the control tumors ([2]; dose of 0.11 mg/mL of PCI): twice as high
- activity in the reduction of the growth of the tumors ([2]; dose of PCI of 0.6 mg/mL): significant activity (T/C < 25%, significant activity)
- duplication time of the tumor relative to the control group ([2]; doses of 0.6 mg/mL): 4.5 times
